# Measured values: PubChem BioAssay (NCI)
#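 Values below derive from 48-hour exposures of cells grown in 96-well plates, with endpoints linearly interpolated between the two concentrations bracketing the appropriate inhibition level. TGI is the concentration that stops growth completely.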
# Key:
# Assay in all cases: NCI-60 cell line screen, 48 h
# [1] = test system: M14 melanoma
# [2] = test system: HS 578T breast
# [3] = test system: SF-539 CNS
# [4] = test system: SK-OV-3 ovarian
# [5] = test system: NCI-H522 lung
# [6] = test system: CAKI-1 renal
# [7] = test system: HOP-62 NSCLC
# [8] = test system: HOP-92 NSCLC
# [9] = test system: OVCAR-8 ovarian
# [10] = test system: UACC-62 melanoma
# [11] = test system: MDA-MB-231 breast
# [12] = test system: SF-295 CNS
# [13] = test system: SR leukemia
Structure (SMILES),TGI [1] [µM],TGI [2] [µM],TGI [3] [µM],TGI [4] [µM],TGI [5] [µM],TGI [6] [µM],TGI [7] [µM],TGI [8] [µM],TGI [9] [µM],TGI [10] [µM],TGI [11] [µM],TGI [12] [µM],TGI [13] [µM]
CN(O)C(=O)CCC(NC(=O)CCC(N)C(=O)O)C(=O)NCC(=O)O (stereo not drawn),> 100,> 100,> 100,> 100,> 100,> 100,> 100,> 100,> 100,> 100,> 100,> 100,
S=C(NCc1ccccc1)Nc1sc(=NCc2ccccc2)nc2sc3c(c12)CCN(N1CCc2c(sc4nc(=NCc5ccccc5)sc(NC(=S)NCc5ccccc5)c24)C1)C3,> 65.4,> 100,> 45.9,99.6,> 100,> 75.9,> 100,> 100,> 100,> 75.2,> 44,> 100,
Cc1cn(C2CC(n3cc(Cn4ccc(=O)[nH]c4=O)nn3)C(CO)O2)c(=O)[nH]c1=O (stereo not drawn),> 100,> 100,> 100,> 100,,> 100,> 100,> 100,> 100,> 100,> 100,> 100,
COc1ccc(C2SCC(=O)N2c2ccc(-n3c(-c4ccccc4)nc4ccccc4c3=O)cc2)cc1 (stereo not drawn),> 100,,> 100,> 100,> 100,> 100,> 100,> 100,> 100,> 100,> 100,> 100,> 100
COC(=O)C1CCC(=O)N1C(c1ccc(OC)cc1)c1cc(OC)c(OC)c(OC)c1 (stereo not drawn),21.6,,,> 100,0.212,> 100,> 100,> 100,> 100,> 100,64.9,0.465,
c1ccc2c3c(ccc2c1)-c1[nH]ncc1CCO3,,,69.8,> 100,> 81.5,> 64,> 91.9,57.7,> 90.1,> 62.9,,> 86.1,
CC(C)(C)c1ccc2c(c1)OP1(Oc3c(Cl)cc(Cl)c4cccnc34)(O2)Oc2ccc(C(C)(C)C)cc2O1,,,21.2,16.5,8.45,9.58,20,,45.8,21.1,,32.1,
CCOC(=O)CNC(=O)C(CCC(=O)N(C)O)NC(=O)CCC(N)C(=O)O (stereo not drawn),> 100,> 100,> 100,> 100,> 100,> 100,> 100,> 100,> 100,> 100,> 100,> 100,
Cn1c(-c2ccco2)ccc1-c1ccc(C=O)o1,> 100,,48.8,> 100,> 100,55.2,> 100,> 100,> 100,> 100,> 100,> 100,> 100
COc1ccc(C2CC(c3c(O)ccc4ccccc34)=NN2)cc1OC (stereo not drawn),17.3,7.43,18.4,28.8,8.58,58.4,17.5,24.7,17.8,13.6,53.4,17.6,
CCCn1cc2c(=O)[nH]c(SC)nc2n1,> 100,,> 100,,,> 100,,> 100,> 100,,,> 100,> 100
CCCCSC1=N/C(=C\c2ccccc2O)C(=O)N1,> 100,> 100,> 100,> 100,> 100,> 100,> 100,> 100,> 100,> 100,> 100,> 100,
S=P1(Sc2ccccc2)Oc2ccc3ccccc3c2-c2c(ccc3ccccc23)O1,,,> 100,> 100,> 100,> 100,> 100,> 100,> 100,> 100,,> 100,
C=C(/C=C/C=C(\C)CCC=C(C)C)[C@@H]1CC[C@]2([C@H](CCCO)/C(=C(/C)C=O)CC[C@]2(C)O)[C@@H]1O,48.2,,25.1,> 100,33,60.9,,,46.5,,,44,40.9
Cn1c(-c2ccc(C=O)o2)ccc1-c1ccc(C=O)o1,> 100,,63.7,> 100,,36.8,> 100,> 100,> 100,> 100,> 100,> 100,> 100
Cc1nc2c(c(N3CCN(C)CC3)n1)Cc1ccccc1-2,> 100,> 100,> 100,> 100,56.4,49.4,,> 100,> 100,> 100,> 100,> 100,
